The target of test [1] is T1, phosphorylated ERBB2 (pERBB2) (Homo sapiens, UniProt P04626).
T1 construct: endogenous in cells; host or cells: BT-474
As to the kind of experiment: Detection of phosphorylated ERBB2 (pERBB2) by ELISA in BT-474 cells. The class given is cell-based. To be noted: four hour incubation with compound. The method, then: BT-474 cells were seeded into a 96-well at 2.0*10^4 cells/100 μl/well. Compounds were dissolved and serially diluted in DMSO. The compounds were then were added, mixed, and incubated for four hours at 37° C., 5% CO2. Compounds were added using four-fold dilutions at final concentrations ranging from 10 μM to 0.01 nM. Following the four hour incubation with compounds, cell lysates were prepared. Plates were centrifuged for 5 min at 3000 RPM, and supernatant was removed from each well. Cells were washed 3 times by resuspension in 150 μl PBS, followed by centrifugation and removal of the supernatant, as above. […] Cells were incubated with lysis buffer for 1 hour at 4° C., and then stored at -80° C. Enzyme-linked immunosorbent assays (ELISA) were performed to measure phosphorylated ERBB2 levels. […] The next day, plates were washed with PBS+0.05% Tween20 (PBST). 150 μl of 5% BSA blocking solution was added for 1 hour at room temperature, with shaking. Plates were washed with PBST. Cell lysates were thawed and 100 μl of lysate was added to the ELISA plate. The plates were incubated for 2 hours at room temperature, with shaking. […] Plates were incubated for 1 hour at room temperature, with shaking. Plates were then washed with PBST, and 100 μl TMB substrate solution (R&D Systems, cat #DY999) was added. Plate were incubated in the dark for 20 minutes at room temperature. 50 μl of Stop solution (R&D Systems, cat #DY994) (50 μl) was added to each well and mixed. Optical density at 450 nm was read on an EnSpire plate reader (Perkin Elmer). The remaining kinase activity by calculated using the following formula: % Relative activity=100×([…]). The low and high control values (“LC” and “HC”) were generated from lysate from wells without cells or with cells treated with 0.1% DMSO, respectively.
Background: ELISA stands for enzyme-linked immunosorbent assay.

The target in the next test is Ba/F3 ERBB2 YVMA (Homo sapiens, UniProt P04626, DUP772-775, cells depend on it). As to the kind of experiment: Cell viability assay (CellTiter Glo) in Ba/F3 cells engineered to express ERBB2 YVMA. The class given is cell-based, mouse. The conditions noted are these: Ba/F3 cells expressing human ERBB2 YVMA mutant, 72 hours, % viability, read-out: Ba/F3 ERBB2 YVMA IC50. The method, then: Cells were treated with compounds, and cell viability was measured as a metric of kinase inhibition.
The Ba/F3 cell line is IL-3-dependent mouse cell line derived from the C3H mouse strain. Ba/F3 cell lines were engineered to express human ERBB2 or EGFR kinases, rendering the cells IL-3 independent. The lines were generated via retroviral transduction utilizing a Moloney murine leukemia virus (MMLV) promoter, and constructs are stably integrated into the cell genome. The sequences of the ERBB2 and EGFR genes used were NCBI Reference Sequences NM_004448.3 and NM_005228.3, respectively.
Similarly, Ba/F3 cell lines engineered to express EGFR, ERBB2, or ERBB2 mutants were grown, harvested, counted and seeded at 3000 cells per well in 96-well plates for the data sets shown in Tables B3-B4. A subset of wells contained media only (low control, “LC”).
Table B1 provides the growth media and number of cells seeded per well for the each cell line.
Compounds were dissolved in DMSO and serially diluted. Serially-diluted compound or a DMSO only control (high control, “HC”) was added to the plated cells in each well. […] The final proportion of DMSO never exceeded 0.1%.
Plates were placed in a 37° C., 5% CO2 incubator for 72 hours. Plates were then removed from the incubator and equilibrated for 15 minutes at room temperature. 40 μl of CellTiter Glo reagent (Promega) was added to measure the relative level of metabolically active cells by quantifying intracellular ATP concentrations. Plates were incubated for 30 minutes at room temperature, and luminescence was measured. Percent viability was normalized to a vehicle control only using the following formula: % viability=100×(Lumsample−LumLC)/(LumHC−LumLC). Graphical curves were fitted using a nonlinear regression model with a sigmoidal dose response.
In general terms: Cellular ATP, detected with luciferase, serves as a proxy for viable cell number.

In test [2] the target is T2, phosphorylated EGFR (pEGFR) (Homo sapiens, UniProt P00533).
T2 construct: performed to measure phosphorylated EGFR levels using A431 cells; endogenous in cells; host or cells: A431
Put plainly: Detection of phosphorylated EGFR (pEGFR) in EGF-stimulated A431 cells (AlphaLISA). It is filed as cell-based. To be noted: A431 cells (10% FBS), 4 hours incubation, EGF 30 ng/mL for 10 minutes. The method, then:
Enzyme-linked immunosorbent assays (ELISA) were performed to measure phosphorylated EGFR levels using A431 cells (10% FBS). A431 (1.0*10^4 cells/40 μl/well) cells were seeded in 384 well. Compounds were dissolved in DMSO, serially diluted in DMSO and then were added, mixed, and incubated for 4 hours at 37° C., 5% CO2. Following the 4-hours incubation, cells were stimulated for 10 minutes with EGF (Invitrogen, cat #PHG0311) at a final concentration of 30 ng/mL in the incubator. The media was aspirated and cells were lysed in 10 μL lysis buffer with protease and phosphatase inhibitors (PerkinElmer, cat #ALSU-PEGFR-A50K). The plates were placed on a shaker for 5 minutes and then incubated for 30 min at 4° C. for complete lysis. The lysate was transferred to an Optiplate (Perkin Elmer, cat #6007290).
Acceptor mix (PerkinElmer, cat #ALSU-PEGFR-A50K) was prepared just before use and 5 μL was dispensed to all the wells, followed by a 1.5-2 h incubation at room temperature in dark. The donor mix (PerkinElmer, cat #ALSU-PEGFR-A50K) was prepared under low light conditions prior to use and 5 μl of donor mix was added to all the wells under subdued lighting or green filters. The plates were placed on a shaker for 5 min, sealed, and incubated overnight at room temperature in dark. Plates were read on the Envision (PerkinElmer) using standard AlphaLISA settings.
The percentage of inhibition on EGFR phosphorylation was calculated following equation: % Inhibition=100×(LumHC−LumSample)/(LumHC−LumLC). The low and high controls (LC/HC) are generated from lysate from wells with cells treated with DMSO or […] Staurosporine (BioAustralis, cat #BIA-S1086), […]. IC50 values were calculated by fitting the Curve using XLfit (v5.3.1.3), equation 201: Y=Bottom+ (Top−Bottom)/(1+10^((LogIC50−X)*HillSlope)).
(In Alpha technology, singlet oxygen from a donor bead excites a nearby acceptor bead.)

Bounds are passed on as bounds.

Ba/F3 ERBB2 YVMA, sequence (P04626 with tags, fused parts or gaps DUP772-775): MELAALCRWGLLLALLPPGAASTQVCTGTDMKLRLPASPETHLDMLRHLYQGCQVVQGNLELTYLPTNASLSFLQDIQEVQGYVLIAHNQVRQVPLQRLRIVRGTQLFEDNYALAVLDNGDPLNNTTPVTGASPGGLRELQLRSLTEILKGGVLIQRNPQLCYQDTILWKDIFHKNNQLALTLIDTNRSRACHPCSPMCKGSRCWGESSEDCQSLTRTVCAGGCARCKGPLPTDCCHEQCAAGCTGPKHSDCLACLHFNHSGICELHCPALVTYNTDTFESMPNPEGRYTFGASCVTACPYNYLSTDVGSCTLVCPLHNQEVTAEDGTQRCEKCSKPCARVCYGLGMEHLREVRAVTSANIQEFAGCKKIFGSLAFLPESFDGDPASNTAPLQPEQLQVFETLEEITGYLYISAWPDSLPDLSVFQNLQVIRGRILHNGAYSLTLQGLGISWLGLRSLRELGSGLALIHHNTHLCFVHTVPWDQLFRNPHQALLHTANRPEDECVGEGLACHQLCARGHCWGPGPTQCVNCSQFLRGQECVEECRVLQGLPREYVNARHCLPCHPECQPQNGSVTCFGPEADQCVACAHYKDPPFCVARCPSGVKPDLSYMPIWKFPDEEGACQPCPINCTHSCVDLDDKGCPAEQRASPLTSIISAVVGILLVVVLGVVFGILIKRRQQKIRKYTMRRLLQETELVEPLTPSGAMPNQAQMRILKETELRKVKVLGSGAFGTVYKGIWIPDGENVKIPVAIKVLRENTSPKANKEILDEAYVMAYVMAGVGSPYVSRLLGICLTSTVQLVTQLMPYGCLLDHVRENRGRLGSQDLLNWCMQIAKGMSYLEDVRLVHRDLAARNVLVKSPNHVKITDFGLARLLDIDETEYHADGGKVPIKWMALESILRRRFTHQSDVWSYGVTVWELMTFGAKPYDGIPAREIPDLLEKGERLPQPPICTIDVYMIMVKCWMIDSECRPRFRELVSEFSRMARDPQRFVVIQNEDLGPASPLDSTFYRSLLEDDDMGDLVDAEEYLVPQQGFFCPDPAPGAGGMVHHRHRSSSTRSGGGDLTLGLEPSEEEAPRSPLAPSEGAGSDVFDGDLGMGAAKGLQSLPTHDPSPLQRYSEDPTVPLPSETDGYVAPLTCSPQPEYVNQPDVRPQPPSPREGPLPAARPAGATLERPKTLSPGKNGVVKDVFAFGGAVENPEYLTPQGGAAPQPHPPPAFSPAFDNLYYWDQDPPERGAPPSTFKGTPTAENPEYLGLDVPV
T2 sequence (P00533 25-1210): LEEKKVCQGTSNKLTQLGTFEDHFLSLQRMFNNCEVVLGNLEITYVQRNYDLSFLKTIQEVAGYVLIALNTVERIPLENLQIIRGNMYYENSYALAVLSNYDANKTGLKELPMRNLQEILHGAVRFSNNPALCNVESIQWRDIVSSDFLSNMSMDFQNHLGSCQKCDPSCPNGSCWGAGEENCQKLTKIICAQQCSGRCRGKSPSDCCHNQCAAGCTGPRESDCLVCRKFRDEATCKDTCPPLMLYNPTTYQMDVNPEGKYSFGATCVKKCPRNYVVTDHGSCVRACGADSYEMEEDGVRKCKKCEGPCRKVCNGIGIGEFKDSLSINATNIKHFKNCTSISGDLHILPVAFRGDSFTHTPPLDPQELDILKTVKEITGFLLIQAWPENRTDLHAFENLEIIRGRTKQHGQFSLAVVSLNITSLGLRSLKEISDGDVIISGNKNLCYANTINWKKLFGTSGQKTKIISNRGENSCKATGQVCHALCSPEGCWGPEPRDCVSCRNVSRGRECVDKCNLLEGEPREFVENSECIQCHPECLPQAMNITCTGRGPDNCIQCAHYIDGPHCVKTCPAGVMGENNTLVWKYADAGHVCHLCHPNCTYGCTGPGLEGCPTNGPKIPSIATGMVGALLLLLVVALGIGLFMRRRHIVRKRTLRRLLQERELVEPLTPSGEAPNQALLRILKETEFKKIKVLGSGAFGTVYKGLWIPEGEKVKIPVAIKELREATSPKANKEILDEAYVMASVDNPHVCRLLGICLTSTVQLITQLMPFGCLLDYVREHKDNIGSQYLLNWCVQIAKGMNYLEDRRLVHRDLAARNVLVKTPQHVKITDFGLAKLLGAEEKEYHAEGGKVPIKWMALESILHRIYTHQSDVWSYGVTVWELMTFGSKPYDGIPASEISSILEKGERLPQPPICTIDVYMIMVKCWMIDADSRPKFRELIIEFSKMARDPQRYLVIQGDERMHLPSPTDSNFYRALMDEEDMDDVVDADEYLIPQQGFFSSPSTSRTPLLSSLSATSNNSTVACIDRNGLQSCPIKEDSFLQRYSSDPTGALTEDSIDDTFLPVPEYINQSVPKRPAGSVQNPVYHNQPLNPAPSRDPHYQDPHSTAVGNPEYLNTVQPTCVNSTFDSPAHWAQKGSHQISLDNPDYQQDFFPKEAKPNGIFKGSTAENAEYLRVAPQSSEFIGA
T1 sequence (P04626 23-1255): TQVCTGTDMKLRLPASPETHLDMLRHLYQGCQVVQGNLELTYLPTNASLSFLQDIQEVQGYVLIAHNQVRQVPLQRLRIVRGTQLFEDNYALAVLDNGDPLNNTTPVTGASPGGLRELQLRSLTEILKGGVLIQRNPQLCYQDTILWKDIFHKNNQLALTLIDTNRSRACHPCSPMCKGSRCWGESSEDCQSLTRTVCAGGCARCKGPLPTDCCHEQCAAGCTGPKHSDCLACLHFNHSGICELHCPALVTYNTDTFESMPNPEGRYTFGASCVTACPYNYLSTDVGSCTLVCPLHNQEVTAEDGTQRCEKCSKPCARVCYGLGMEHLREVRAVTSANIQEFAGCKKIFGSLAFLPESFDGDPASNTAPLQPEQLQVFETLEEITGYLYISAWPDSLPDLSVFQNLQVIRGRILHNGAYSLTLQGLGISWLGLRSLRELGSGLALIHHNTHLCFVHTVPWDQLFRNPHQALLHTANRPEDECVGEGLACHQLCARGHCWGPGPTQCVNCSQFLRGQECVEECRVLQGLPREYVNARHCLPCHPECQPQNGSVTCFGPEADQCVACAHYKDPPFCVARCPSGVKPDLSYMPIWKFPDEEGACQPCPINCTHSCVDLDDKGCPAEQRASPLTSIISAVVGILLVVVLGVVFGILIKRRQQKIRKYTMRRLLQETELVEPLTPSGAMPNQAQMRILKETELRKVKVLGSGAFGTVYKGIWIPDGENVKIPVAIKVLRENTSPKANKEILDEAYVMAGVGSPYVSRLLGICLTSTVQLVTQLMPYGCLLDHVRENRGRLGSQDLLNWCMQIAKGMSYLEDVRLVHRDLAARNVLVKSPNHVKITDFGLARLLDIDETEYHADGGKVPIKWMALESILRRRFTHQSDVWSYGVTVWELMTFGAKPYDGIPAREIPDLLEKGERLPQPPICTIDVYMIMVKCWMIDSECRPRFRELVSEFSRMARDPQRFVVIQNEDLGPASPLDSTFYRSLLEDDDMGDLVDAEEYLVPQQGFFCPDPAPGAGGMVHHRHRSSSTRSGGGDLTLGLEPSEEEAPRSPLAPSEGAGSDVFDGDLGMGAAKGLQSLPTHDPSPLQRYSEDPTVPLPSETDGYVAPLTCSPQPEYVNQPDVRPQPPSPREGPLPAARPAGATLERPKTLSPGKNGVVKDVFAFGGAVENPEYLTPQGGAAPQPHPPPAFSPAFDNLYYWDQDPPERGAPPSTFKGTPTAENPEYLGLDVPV

Usually IC50 stands for the midpoint of a concentration-inhibition curve. With `CC#CC(=O)N1CC2CCC(C1)N2c1ccc2ncnc(Nc3ccc(Oc4ccn5ncnc5c4)c(C)c3)c2n1` [Compound 26, 1-(8-{4-[(3-methyl-4-{[1,2,4]triazolo[1,5-a]pyridin-7-yloxy}phenyl)amino]pyrido[3,2-d]pyrimidin-6-yl}-3,8-diazabicyclo[3.2.1]octan-3-yl)but-2-yn-1-one], the figures for the IC50 in test [1] and in test [2] were 0.0355 µM and 2.35 µM, respectively. Besides, at Ba/F3 ERBB2 YVMA, the GI50 is 0.00616 µM.

For the molecule `CC#CC(=O)N1C2CCC1CN(c1ccc3ncnc(Nc4ccc(Oc5ccn6ncnc6c5)c(C)c4)c3n1)C2` [Compound 27, 1-(3-{4-[(3-methyl-4-{[1,2,4]triazolo[1,5-a]pyridin-7-yloxy}phenyl)amino]pyrido[3,2-d]pyrimidin-6-yl}-3,8-diazabicyclo[3.2.1]octan-8-yl)but-2-yn-1-one], the half-inhibitory concentration (IC50) is 0.0604 µM in test [1] and 2.8 µM in test [2]. The GI50 on Ba/F3 ERBB2 YVMA was determined as 0.0274 µM.

On to `CC#CC(=O)N1CC2CC(C1)N2c1ccc2ncnc(Nc3ccc(Oc4ccn5ncnc5c4)c(C)c3)c2n1` [Compound 28, 1-(6-{4-[(3-methyl-4-{[1,2,4]triazolo[1,5-a]pyridin-7-yloxy}phenyl)amino]pyrido[3,2-d]pyrimidin-6-yl}-3,6-diazabicyclo[3.1.1]heptan-3-yl)but-2-yn-1-one], for which the IC50 is 0.444 µM in test [1] and > 10 µM in test [2]. The GI50 at Ba/F3 ERBB2 YVMA turned out to be 0.228 µM.

Regarding `CC#CC(=O)N1CC2CC1CN2c1ccc2ncnc(Nc3ccc(Oc4ccn5ncnc5c4)c(C)c3)c2n1` (stereo not drawn) [Compound 30, 1-(5-(4-((4-([1,2,4]triazolo[1,5-a]pyridin-7-yloxy)-3-methylphenyl)amino)pyrido[3,2-d]pyrimidin-6-yl)-2,5-diazabicyclo[2.2.1]heptan-2-yl)but-2-yn-1-one], the half-inhibitory concentration (IC50) is 0.0614 µM in test [1] and 2.43 µM in test [2]. Further, on Ba/F3 ERBB2 YVMA, the GI50 was found to be 0.0212 µM.

In the case of `CC#CC(=O)N1CCN(c2ccc3ncnc(Nc4ccc(Oc5ccc6c(c5)ncn6C)c(C)c4)c3n2)CC1` [Compound 31, 1-{4-[4-({3-methyl-4-[(1-methyl-1,3-benzodiazol-5-yl)oxy]phenyl}amino)pyrido[3,2-d]pyrimidin-6-yl]piperazin-1-yl}but-2-yn-1-one], the half-inhibitory concentration (IC50) was found to be 0.029 µM in test [1] and 7.64 µM in test [2]. For the same molecule, the GI50 at Ba/F3 ERBB2 YVMA worked out at 0.00656 µM.

For `CC#CC(=O)N1CCN(c2ccc3ncnc(Nc4ccc(O[C@@H]5CCCOC5)c(C)c4)c3n2)CC1` [Compound 32, 1-{4-[4-({3-methyl-4-[(3R)-oxan-3-yloxy]phenyl}amino)pyrido[3,2-d]pyrimidin-6-yl]piperazin-1-yl}but-2-yn-1-one], the IC50 is 0.334 µM in test [1] and 3.82 µM in test [2]. Further, the GI50 on Ba/F3 ERBB2 YVMA is 0.288 µM.

On to `CC#CC(=O)N1CCN(c2ccc3ncnc(Nc4ccc(O[C@H]5CCCOC5)c(C)c4)c3n2)CC1` [Compound 33, 1-{4-[4-({3-methyl-4-[(3S)-oxan-3-yloxy]phenyl}amino)pyrido[3,2-d]pyrimidin-6-yl]piperazin-1-yl}but-2-yn-1-one], for which the 50% inhibitory concentration (IC50) in test [1] is 0.524 µM; in test [2], 4.05 µM. The GI50 on Ba/F3 ERBB2 YVMA came to 0.237 µM.

With `C=CC(=O)N1CCN(c2ccc3ncnc(Nc4ccc(CN5CCn6ncnc6C5)c(C)c4)c3n2)CC1` [Compound 34, 1-(4-{4-[(3-methyl-4-{5H,6H,8H-[1,2,4]triazolo[1,5-a]pyrazin-7-ylmethyl}phenyl)amino]pyrido[3,2-d]pyrimidin-6-yl}piperazin-1-yl)prop-2-en-1-one], the figures for the IC50 in test [1] and in test [2] were 0.0689 µM and > 10 µM, respectively. Also, on Ba/F3 ERBB2 YVMA, the GI50 came out at 0.255 µM.

For the molecule `C=CC(=O)N1CCN(c2ccc3ncnc(Nc4ccc(Oc5ccn6ncnc6c5)c(C)c4)c3c2)C[C@H]1C` [Compound 35, 1-[(2R)-2-methyl-4-{4-[(3-methyl-4-{[1,2,4]triazolo[1,5-a]pyridin-7-yloxy}phenyl)amino]quinazolin-6-yl}piperazin-1-yl]prop-2-en-1-one], the IC50 was 0.0136 µM in test [1] and 0.823 µM in test [2]. Moreover, the GI50 on Ba/F3 ERBB2 YVMA stood at 0.00788 µM.

With `C=CC(=O)N1CC[C@@H](Oc2ccc3ncnc(Nc4ccc(Oc5ccn6ncnc6c5)c(C)c4)c3c2)C1` [Compound 36, (R)-1-(3-((4-((4-([1,2,4]triazolo[1,5-a]pyridin-7-yloxy)-3-methylphenyl)amino)quinazolin-6-yl)oxy)pyrrolidin-1-yl)prop-2-en-1-one], the IC50 is 0.0178 µM in test [1] and > 10 µM in test [2]. Besides, the GI50 at Ba/F3 ERBB2 YVMA came to 0.0987 µM.

Take `C=CC(=O)N1CC[C@@H](Oc2ccc3ncnc(Nc4ccc(Oc5ccc6c(c5)ncn6C)c(C)c4)c3c2)C1` [Compound 37, 1-[(3R)-3-{[4-({3-methyl-4-[(1-methyl-1,3-benzodiazol-5-yl)oxy]phenyl}amino)quinazolin-6-yl]oxy}pyrrolidin-1-yl]prop-2-en-1-one]: the 50% inhibitory concentration (IC50) in test [1] came to 0.0337 µM; in test [2], 2.88 µM. For the same molecule, the GI50 on Ba/F3 ERBB2 YVMA turned out to be 0.0528 µM.

`C=CC(=O)N1CC[C@H](Oc2ccc3ncnc(Nc4ccc(Oc5ccc6c(c5)ncn6C)c(C)c4)c3c2)C1` [Compound 38, 1-[(3S)-3-{[4-({3-methyl-4-[(1-methyl-1,3-benzodiazol-5-yl)oxy]phenyl}amino)quinazolin-6-yl]oxy}pyrrolidin-1-yl]prop-2-en-1-one]: the IC50 in test [1] is 0.00756 µM; in test [2], 0.462 µM. Further, the GI50 on Ba/F3 ERBB2 YVMA turned out to be 0.00722 µM.

`C=CC(=O)N1CCN(c2cc3c(Nc4ccc(Oc5ccc(C(=O)NCC(C)(C)C)cc5)c(C)c4)ncnc3cn2)CC1` [Compound 39, N-(2,2-dimethylpropyl)-4-[2-methyl-4-({6-[4-(prop-2-enoyl)piperazin-1-yl]pyrido[3,4-d]pyrimidin-4-yl}amino)phenoxy]benzamide]: the 50% inhibitory concentration (IC50) in test [1] is 0.0599 µM; in test [2], 3.36 µM. Also, the GI50 at Ba/F3 ERBB2 YVMA is 0.053 µM.

As for `C=CC(=O)N1CCC(Nc2ccc3ncnc(Nc4ccc(Oc5ccn6ncnc6c5)c(C)c4)c3n2)CC1` [Compound 40, 1-[4-({4-[(3-methyl-4-{[1,2,4]triazolo[1,5-a]pyridin-7-yloxy}phenyl)amino]pyrido[3,2-d]pyrimidin-6-yl}amino)piperidin-1-yl]prop-2-en-1-one], the half-inhibitory concentration (IC50) was 0.0061 µM in test [1] and 0.022 µM in test [2]. Further, at Ba/F3 ERBB2 YVMA, the GI50 was determined as 0.00581 µM.

The values above are taken from patent publication US20250136595A1, “ACYLATED HETEROCYCLIC QUINAZOLINE DERIVATIVES AS INHIBITORS OF ERBB2” (Enliven Inc., priority 2022, published 2025).
